{"source": "paper PMC4948780", "about": "“PARP Inhibitors in Clinical Use Induce Genomic Instability in Normal Human Cells” (PLoS ONE, 2016)", "key": {"MCF-7": {"tested_on": "MCF-7", "assay": "Chromosomal aberrations on metaphase spreads (Giemsa)", "format": "cell-based, human", "conditions": "1 μM, 24 hrs", "protocol": "(§1) To prepare metaphase spreads, exponentially growing cells were treated with 0.1–0.3 μg/ml of colcemid for 1–6 hr. Cells were collected and incubated in hypotonic solution (0.56% KCl), fixed in methanol: acetic acid (3:1), spotted to slides and air-dried. To measure chromosomal aberrations, the slides were stained with 2% Giemsa/Sorensen’s buffer. To visualize SCEs, the doubling time for each cell type was determined. Cells were incubated with 10 μM BrdU for two cell cycles. After metaphase spreads were prepared, the slides were treated with 0.5 μg/ml Hoechst 33258. The slides were exposed to black light for 20–60 min, incubated at 60°C for 2 hr, and stained in 4–10% Giemsa/Sorensen’s buffer."}, "primary T cell 1": {"tested_on": "primary T cell 1", "assay": "Chromosomal aberrations on metaphase spreads (Giemsa)", "format": "cell-based, human", "conditions": "1 μM, 24 hrs", "protocol": "as §1"}, "MDA-MB-468": {"tested_on": "MDA-MB-468", "assay": "Chromosomal aberrations on metaphase spreads (Giemsa)", "format": "cell-based, human", "conditions": "1 μM, 24 hrs", "protocol": "as §1"}, "HMEC-hTERT": {"tested_on": "HMEC-hTERT", "assay": "Chromosomal aberrations on metaphase spreads (Giemsa)", "format": "cell-based, human", "conditions": "1 μM, 24 hrs", "protocol": "as §1"}, "EBV-BL": {"tested_on": "EBV-BL", "assay": "Chromosomal aberrations on metaphase spreads (Giemsa)", "format": "cell-based, human", "conditions": "1 μM, 24 hrs, 100 metaphases", "protocol": "as §1"}, "[1]": {"tested_on": "Brca2^lex1/lex2 mES cells", "assay": "Clonogenic survival assay, mES cells", "format": "cell-based, mouse", "excerpt": "(§2) Human mammary epithelial cell lines used included non-tumorigenic diploid MCF-10A, HMEC-hTERT and tumorigenic MDA-MB-468 (basal) and MCF-7 (luminal). […] Blood samples were obtained from normal donor participants. The participants provided written informed consent to IRB protocol #95–054 approved by the Institutional Review Board at MSKCC. The original signed consent is then sent to the research participant’s medical record and a copy of the consent is given to the participant. The EBV-transformed B-lymphocyte cell line (EBV-BL) was generated by transformation of peripheral blood mononuclear cells (PBMC) with the B95.8 strain of EBV, as previously described. Primary T cells were generated from PBMC from two normal donors by non-specific activation with phytohemagglutinin and cultured in RPMI1640 and human serum AB for 4–14 days before use. E14 mES cell line was provided by M. Hooper, Brca1^-/- 236.44 mES cell line was provided by B. H. Koller, Brca2^lex1/lex2 mES cell line was provided by P. Hasty and Lexicon Genetics. E14 wild-type, Brca1^-/- 236.44, and Brca2^lex1/lex2 mES cell lines were cultured in standard ES media. Brca1^-/- 236.44 cells express a BRCA1 peptide deleted for sequences encoded by exon 11 [52], while Brca2^lex1/lex2 cells express a BRCA2 peptide deleted for the terminal exon 27 [53]. […] Veliparib and BSI-201 were purchased from Chemie Tek. The compounds were dissolved in DMSO and PBS. For clonogenic survival assays, MCF-10A (1000 cells), HMEC-hTERT (1000 cells), MDA-MB-468 (1500 cells) and mouse ES cell (2000 cells) were seeded, vehicle control or inhibitors were added at the indicated concentration 24 hours after seeding and changed every three days for continuous treatment. At 7–14 days, colonies were fixed with methanol and stained with Giemsa. For EBV-BL (6 × 10^6) and primary T cells (3.6 × 10^6) were continuously exposed to the indicated concentration of drug for 10 days at 0.6 × 10^6 cells/ml. Viable cells were scored by trypan blue exclusion."}, "[2]": {"tested_on": "Brca1^-/- 236.44 mES cells", "assay": "Clonogenic survival assay, mES cells", "format": "cell-based, mouse", "excerpt": "as §2"}, "[3]": {"conditions": "100 metaphases, radial and telomere association counted as two"}, "[4]": {"conditions": "Mus musculus, read-out: IC50 (clonogenic survival)"}}}
{"molecule": "O=C(c1cc(Cc2n[nH]c(=O)c3ccccc23)ccc1F)N1CCN(C(=O)C2CC2)CC1", "note": "[olaparib]", "values": [{"measurement": "total chromatid-type aberrations / metaphase (mean ± SEM)", "setting": "MCF-7", "value": "1.39 ± 0.14"}, {"measurement": "chromatid-type radial chromosome", "setting": "MCF-7; 100 metaphases", "value": 4}, {"measurement": "chromatid-type telomere association", "setting": "MCF-7; 100 metaphases", "value": 1}, {"measurement": "chromosome-type dicentric", "setting": "MCF-7; 100 metaphases", "value": 4}, {"measurement": "chromosome-type gap/break", "setting": "MCF-7; 100 metaphases", "value": 8}, {"measurement": "total chromatid-type aberrations / metaphase (mean ± SEM)", "setting": "primary T cell 1", "value": "0.44 ± 0.07"}, {"measurement": "chromatid-type radial chromosome", "setting": "primary T cell 1; 100 metaphases", "value": 2}, {"measurement": "chromatid-type telomere association", "setting": "primary T cell 1; 100 metaphases", "value": 0}, {"measurement": "chromosome-type dicentric", "setting": "primary T cell 1; 100 metaphases", "value": 3}, {"measurement": "chromosome-type gap/break", "setting": "primary T cell 1; 100 metaphases", "value": 0}, {"measurement": "total chromatid-type aberrations", "setting": "primary T cell 1; [3]", "value": 44}, {"measurement": "total chromatid-type aberrations / metaphase (mean ± SEM)", "setting": "MDA-MB-468", "value": "0.67 ± 0.13"}, {"measurement": "chromatid-type radial chromosome", "setting": "MDA-MB-468; 100 metaphases", "value": 5}, {"measurement": "chromatid-type telomere association", "setting": "MDA-MB-468; 100 metaphases", "value": 3}, {"measurement": "chromosome-type dicentric", "setting": "MDA-MB-468; 100 metaphases", "value": 4}, {"measurement": "chromosome-type gap/break", "setting": "MDA-MB-468; 100 metaphases", "value": 5}, {"measurement": "total chromatid-type aberrations", "setting": "MDA-MB-468; [3]", "value": 67}, {"measurement": "total chromatid-type aberrations / metaphase (mean ± SEM)", "setting": "HMEC-hTERT", "value": "0.30 ± 0.07"}, {"measurement": "chromatid-type radial chromosome", "setting": "HMEC-hTERT; 100 metaphases", "value": 0}, {"measurement": "chromatid-type telomere association", "setting": "HMEC-hTERT; 100 metaphases", "value": 0}, {"measurement": "chromosome-type dicentric", "setting": "HMEC-hTERT; 100 metaphases", "value": 0}, {"measurement": "chromosome-type gap/break", "setting": "HMEC-hTERT; 100 metaphases", "value": 4}, {"measurement": "total chromatid-type aberrations", "setting": "HMEC-hTERT; [3]", "value": 30}, {"measurement": "chromatid-type radial chromosome", "setting": "EBV-BL", "value": 1}, {"measurement": "chromatid-type telomere association", "setting": "EBV-BL", "value": 0}, {"measurement": "chromosome-type dicentric", "setting": "EBV-BL", "value": 0}, {"measurement": "chromosome-type gap/break", "setting": "EBV-BL", "value": 1}, {"measurement": "total chromatid-type aberrations", "setting": "EBV-BL; radial and telomere association counted as two", "value": 44}, {"measurement": "IC50", "setting": "[1]; [4]", "value": 13, "unit": "nM"}, {"measurement": "enhanced sensitivity of cells lacking wild-type BRCA2 vs wild-type cells", "setting": "[1]; ratio of IC50, wild-type / Brca2^lex1/lex2", "value": 46, "unit": "fold"}, {"measurement": "IC50", "setting": "[2]; [4]", "value": 2.5, "unit": "nM"}, {"measurement": "enhanced sensitivity of cells lacking wild-type BRCA1 vs wild-type cells", "setting": "[2]; ratio of IC50, wild-type / Brca1^-/- 236.44", "value": 240, "unit": "fold"}]}
